# Laboratory results reported in ChEMBL document CHEMBL1144023, “Computer-aided discovery of anti-inflammatory thiazolidinones with dual cyclooxygenase/lipoxygenase inhibition” (J Med Chem, 2008).
# Active and inactive are the calls of the source. The calls are words filed in the database; no cut-off is given here.
# What was measured:
# [1] = biological target: T1, Prostaglandin G/H synthase 1 (Ovis aries) (UniProt P05979); test: Inhibition of sheep COX1 at 200 uM in presence of 1 uM arachidonic acid
# T1 sequence (whole entry): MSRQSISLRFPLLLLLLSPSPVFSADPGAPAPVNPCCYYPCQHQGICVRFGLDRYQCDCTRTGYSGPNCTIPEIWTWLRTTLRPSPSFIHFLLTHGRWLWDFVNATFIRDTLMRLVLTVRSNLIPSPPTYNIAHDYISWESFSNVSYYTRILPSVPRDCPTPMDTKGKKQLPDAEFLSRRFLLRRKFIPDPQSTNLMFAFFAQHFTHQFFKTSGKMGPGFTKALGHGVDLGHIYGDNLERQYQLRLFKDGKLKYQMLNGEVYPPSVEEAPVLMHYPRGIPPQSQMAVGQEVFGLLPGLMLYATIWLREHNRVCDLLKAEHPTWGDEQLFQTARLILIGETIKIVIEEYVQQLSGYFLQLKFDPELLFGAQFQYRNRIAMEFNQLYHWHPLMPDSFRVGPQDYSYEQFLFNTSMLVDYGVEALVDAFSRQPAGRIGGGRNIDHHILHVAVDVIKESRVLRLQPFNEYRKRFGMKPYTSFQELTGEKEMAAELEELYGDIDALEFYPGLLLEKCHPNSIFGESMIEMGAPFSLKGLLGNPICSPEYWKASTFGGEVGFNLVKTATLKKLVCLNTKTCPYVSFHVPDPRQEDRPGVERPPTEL
# [2] = biological target: T2, Prostaglandin G/H synthase 2 (Homo sapiens) (UniProt P35354); test: Inhibition of human recombinant COX2 at 200 uM
# T2 sequence (whole entry): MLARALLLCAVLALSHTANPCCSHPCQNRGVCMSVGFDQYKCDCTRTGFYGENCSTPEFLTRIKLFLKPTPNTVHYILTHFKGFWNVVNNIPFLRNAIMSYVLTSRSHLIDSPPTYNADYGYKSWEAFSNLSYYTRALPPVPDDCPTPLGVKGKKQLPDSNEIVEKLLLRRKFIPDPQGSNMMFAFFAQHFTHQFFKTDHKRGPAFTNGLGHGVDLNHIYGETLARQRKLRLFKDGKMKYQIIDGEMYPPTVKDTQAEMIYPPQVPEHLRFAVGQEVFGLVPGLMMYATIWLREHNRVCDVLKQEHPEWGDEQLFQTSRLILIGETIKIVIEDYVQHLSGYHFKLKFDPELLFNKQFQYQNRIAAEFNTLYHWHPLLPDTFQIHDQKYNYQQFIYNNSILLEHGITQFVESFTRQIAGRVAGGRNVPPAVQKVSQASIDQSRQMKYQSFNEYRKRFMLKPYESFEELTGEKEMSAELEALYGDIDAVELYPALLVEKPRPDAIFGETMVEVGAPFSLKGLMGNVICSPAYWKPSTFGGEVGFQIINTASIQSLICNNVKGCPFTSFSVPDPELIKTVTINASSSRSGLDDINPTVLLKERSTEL
# [3] = test system: Mus musculus; test: Antiinflammatory activity in AKR mouse assessed as inhibition of carrageenan-induced paw edema at 0.01 mmol/kg; assay type: functional
# [4] = biological target: T3, Seed linoleate 13S-lipoxygenase-1 (Glycine max) (UniProt P08170); test: Inhibition of soybean LOX at 100 uM
# T3 sequence (whole entry): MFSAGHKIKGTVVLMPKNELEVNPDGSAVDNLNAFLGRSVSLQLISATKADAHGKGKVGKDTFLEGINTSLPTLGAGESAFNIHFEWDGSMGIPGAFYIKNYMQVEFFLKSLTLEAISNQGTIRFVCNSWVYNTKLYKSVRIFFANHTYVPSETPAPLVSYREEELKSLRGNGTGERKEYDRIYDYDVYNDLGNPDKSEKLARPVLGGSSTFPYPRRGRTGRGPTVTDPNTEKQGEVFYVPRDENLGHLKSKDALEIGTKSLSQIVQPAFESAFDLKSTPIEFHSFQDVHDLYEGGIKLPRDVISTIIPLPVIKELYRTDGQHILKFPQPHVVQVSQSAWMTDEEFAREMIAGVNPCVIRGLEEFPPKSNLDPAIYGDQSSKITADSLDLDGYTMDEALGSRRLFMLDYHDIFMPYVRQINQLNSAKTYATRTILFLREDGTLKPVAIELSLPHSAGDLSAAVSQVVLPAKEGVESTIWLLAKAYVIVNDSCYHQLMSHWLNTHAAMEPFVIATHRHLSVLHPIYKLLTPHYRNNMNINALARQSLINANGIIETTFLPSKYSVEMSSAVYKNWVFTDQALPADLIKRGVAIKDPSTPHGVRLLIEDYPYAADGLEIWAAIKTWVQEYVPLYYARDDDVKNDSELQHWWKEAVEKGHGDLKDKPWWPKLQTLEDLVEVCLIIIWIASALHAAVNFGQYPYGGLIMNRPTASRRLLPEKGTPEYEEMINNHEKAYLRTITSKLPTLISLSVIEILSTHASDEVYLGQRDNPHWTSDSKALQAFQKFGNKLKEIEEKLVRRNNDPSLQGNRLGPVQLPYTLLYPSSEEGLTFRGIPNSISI
# [5] = biological target: T1, Prostaglandin G/H synthase 1 (Ovis aries); test: Inhibition of sheep COX1 at 200 uM in presence of 100 uM arachidonic acid
# [6] = biological target: T4, Prostaglandin G/H synthase 2 (Homo sapiens, UniProt P35354); test: Inhibition of human recombinant COX2
# T4 sequence (P35354 whole entry): T2 sequence (whole entry)
Structure (SMILES),inhibition [1] [%],inhibition [2] [%],inhibition in vivo at 10 µmol/kg [3] [%],inhibition [4] [%],Activity [5],IC50 [6] [µM]
O=C1CSC(Nc2nccs2)=N1,0,0,–,–,–,–
O=C1N/C(=N\c2nccs2)S/C1=C/c1ccc([N+](=O)[O-])cc1,60,4.5,66.1,12.5,inactive,–
COc1ccc(/C=C2/S/C(=N/c3nccs3)NC2=O)cc1,8,2.5,51.1,22.4,inactive,–
O=C1N/C(=N\c2nccs2)S/C1=C/c1cccc(Cl)c1,90,30.4,44.5,12,inactive,262
